Test results reported in article PMC6664820, “Novel natural and synthetic inhibitors of solute carriers SGLT1 and SGLT2” (Pharmacology Research & Perspectives, 2019).
Structures can show the parent of a compound that is named as a salt. Non-standard residues stand in square brackets, D forms with d. Residues, ends and D or L forms follow the SMILES beside them. pGlu = O=C1CC[CH](C(=O)O)N1

Key:
SGLT1 = target: T1, SGLT1 (Homo sapiens, UniProt P13866); assay: SGLT1 inhibition assay for validation of screening hits and similar compounds (1‐NBD‐glucose uptake, CHO‐hSGLT1 cells); assay type: cell-based; design: activity: dose or concentration left out as unconfirmed; settings: for remaining activity at 5 µM / remaining activity at 50 µM: 0.5 h, concentration not given, read-out: NORMALIZED SGLT1 ACTIVITY (%); for remaining activity at 5 µM / remaining activity at 50 µM / activity: mean; for activity: compound, normalized 1-NBD-glucose uptake, CHO-hSGLT1 cells; for SGLT1/2 inhibition stated in words: SGLT1 and/or SGLT2, discussion statements; for SGLT1 inhibition / inhibition at 50 µM: mean inhibition with 50 μmol/L inhibitor; for inhibition at 50 µM: read-out: SGLT1 inhibition
T1 sequence (P13866 1-664): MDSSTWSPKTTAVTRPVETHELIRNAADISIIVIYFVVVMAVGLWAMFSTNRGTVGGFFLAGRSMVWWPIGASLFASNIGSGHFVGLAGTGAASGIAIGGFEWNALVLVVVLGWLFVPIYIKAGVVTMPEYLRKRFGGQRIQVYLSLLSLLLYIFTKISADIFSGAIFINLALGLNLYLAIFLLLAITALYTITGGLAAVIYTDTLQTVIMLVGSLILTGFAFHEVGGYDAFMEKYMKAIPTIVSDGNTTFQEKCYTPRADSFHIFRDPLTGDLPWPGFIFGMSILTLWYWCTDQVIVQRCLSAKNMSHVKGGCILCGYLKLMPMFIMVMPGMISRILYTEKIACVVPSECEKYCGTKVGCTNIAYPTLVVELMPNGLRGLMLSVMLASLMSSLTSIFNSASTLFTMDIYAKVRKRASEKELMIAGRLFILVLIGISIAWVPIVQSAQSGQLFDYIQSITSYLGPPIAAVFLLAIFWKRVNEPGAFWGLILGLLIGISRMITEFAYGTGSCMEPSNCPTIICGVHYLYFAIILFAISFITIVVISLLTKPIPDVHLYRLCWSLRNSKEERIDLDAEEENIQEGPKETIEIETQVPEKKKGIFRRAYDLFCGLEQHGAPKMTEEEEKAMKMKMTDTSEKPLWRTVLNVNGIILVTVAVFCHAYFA

hSGLT2 = target: T2, hSGLT2 (Homo sapiens, UniProt P31639); assay: SGLT2 inhibition assay for validation of screening hits and similar compounds (1‐NBD‐glucose uptake, CHO‐hSGLT2 cells); assay type: cell-based; design: activity: dose or concentration left out as unconfirmed; settings: for remaining activity at 5 µM / remaining activity at 50 µM: 0.5 h, concentration not given, read-out: NORMALIZED SGLT2 ACTIVITY (%); for remaining activity at 5 µM / remaining activity at 50 µM / activity: mean; for activity: compound, normalized 1-NBD-glucose uptake, CHO-hSGLT2 cells; for SGLT2/SGLT1 ACTIVITY RATIO 5 uM Mean: ratio of normalized SGLT2 to SGLT1 activity at 5 uM; for SGLT2/SGLT1 ACTIVITY RATIO, first concentration / SGLT2/SGLT1 ACTIVITY RATIO, second concentration: ratio of normalized SGLT2 to SGLT1 activity
T2 sequence (P31639 1-672): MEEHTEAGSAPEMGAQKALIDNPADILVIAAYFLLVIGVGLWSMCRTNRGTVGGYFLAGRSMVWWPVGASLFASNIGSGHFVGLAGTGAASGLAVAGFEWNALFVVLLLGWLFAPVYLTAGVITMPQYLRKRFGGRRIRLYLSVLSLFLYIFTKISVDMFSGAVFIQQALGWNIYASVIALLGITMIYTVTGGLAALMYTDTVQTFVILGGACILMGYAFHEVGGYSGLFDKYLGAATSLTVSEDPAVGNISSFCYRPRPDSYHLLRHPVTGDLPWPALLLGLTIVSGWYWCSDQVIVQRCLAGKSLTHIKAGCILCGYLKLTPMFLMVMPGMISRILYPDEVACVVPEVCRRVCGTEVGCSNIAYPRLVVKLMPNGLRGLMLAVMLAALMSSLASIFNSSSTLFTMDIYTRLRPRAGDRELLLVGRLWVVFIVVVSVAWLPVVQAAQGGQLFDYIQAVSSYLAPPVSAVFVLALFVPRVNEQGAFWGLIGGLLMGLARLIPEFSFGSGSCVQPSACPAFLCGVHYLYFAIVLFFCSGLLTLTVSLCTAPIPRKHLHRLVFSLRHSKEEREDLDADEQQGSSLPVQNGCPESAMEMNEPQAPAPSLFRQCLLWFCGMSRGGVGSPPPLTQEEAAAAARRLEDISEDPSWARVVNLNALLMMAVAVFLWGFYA

| Structure (SMILES) | remaining activity at 5 µM (SGLT1) | remaining activity at 50 µM (SGLT1) | remaining activity at 5 µM (hSGLT2) | remaining activity at 50 µM (hSGLT2) | further results |
| --- | --- | --- | --- | --- | --- |
| CCCCN1CCCCC1C(=O)Nc1c(C)cc(C)cc1C (stereo not drawn) | 80% | 44% | 73% | 50% | – |
| CCN(CC)CCC(O)(c1ccccc1)C1CCCCC1 (stereo not drawn) | – | – | – | – | activity (SGLT1): 72%; activity (hSGLT2): 69%; SGLT2/SGLT1 ACTIVITY RATIO 5 uM Mean (hSGLT2): 0.952 |
| Cc1cc(C)c(NC(=O)C2CCCCN2C2CCCCC2)c(C)c1 (stereo not drawn) | 92% | 58% | 81% | 52% | – |
| CN1CCC(C#N)(c2ccccc2)CC1 | 109% | 105% | 105% | 102% | – |
| CC(=O)OC(C)(C)C1Cc2cc3ccc(=O)oc3cc2O1 (stereo not drawn) | – | – | – | – | activity (SGLT1): 106%; activity (hSGLT2): 101%; SGLT2/SGLT1 ACTIVITY RATIO 5 uM Mean (hSGLT2): 1.0 |
| c1coc(-c2nnc([C@H]3CCN(C4CCCCC4)C3)o2)c1 | 122% | 98% | 98% | 89% | – |
| CN1CC[C@H](c2nc3ccccc3s2)C1 | 116% | 116% | 104% | 112% | – |
| CN1CCC(N2CC[C@H](c3nc4ccccc4o3)C2)CC1 | 117% | 114% | 102% | 106% | – |
| Fc1ccccc1CN1CC[C@H](c2nnc(-c3ccco3)o2)C1 | 117% | 117% | 100% | 94% | – |
| Cn1c(CO[C@H]2CN(Cc3ccncc3F)C[C@H]2F)nc2ccccc21 | 115% | 115% | 99% | 99% | – |
| CN1CCC(N2CC[C@H](c3nc4cc(Cl)ccc4o3)C2)CC1 | 116% | 115% | 101% | 85% | – |
| Fc1ccc(-c2noc([C@@H]3CCCN3Cc3ccccc3F)n2)nc1 | 125% | 105% | 110% | 91% | – |
| CC(=O)OC1C(OC(=O)C2(C)OC2C)c2c(ccc3ccc(=O)oc23)OC1(C)C (stereo not drawn) | – | – | – | – | activity (SGLT1): 102%; activity (hSGLT2): 90%; SGLT2/SGLT1 ACTIVITY RATIO 5 uM Mean (hSGLT2): 0.9 |
| Oc1c(Cl)cc(Cl)c2cccnc12 | 115% | 57% | 114% | 91% | – |
| Oc1c(I)cc(I)c2cccnc12 | 109% | 106% | 107% | 107% | – |
| C=CC(C)(O)CC/C=C(\C)C(=O)OC1C(O)C(CO)OC(OC(=O)C23CCC(C)(C)CC2C2=CCC4C5(C)CCC(OC6OC(COC7OCC(OC(C)=O)C(O)C7OC7OC(COC(C)=O)C(O)C(O)C7O)C(O)C(O)C6O)C(C)(C)C5CCC4(C)C2(C)C(O)C3O)C1OC1OCC(OC2OCC(O)C(OC3OCC(O)C(O)C3O)C2O)C(O)C1O (stereo not drawn) | 112% | 54% | 111% | 71% | – |
| c1ccc(CO[C@H]2COCCN(Cc3ccccn3)C2)cc1 | – | – | – | – | activity (SGLT1): 120%; activity (hSGLT2): 110%; SGLT2/SGLT1 ACTIVITY RATIO 5 uM Mean (hSGLT2): 0.9 |
| Cc1nc(-c2cccs2)cc([C@H]2CN3CC[C@H]2C[C@@H]3CO)n1 | 120% | 115% | 110% | 103% | – |
| O[C@@H]1CCCC[C@H]1N1CCC(c2ccccc2)CC1 (racemic) [vesamicol, reference compound] | 93% | 51% | 91% | 71% | SGLT1/2 inhibition stated in words (SGLT1): showed SGLT1/2 inhibition |

| Structure (SMILES) | remaining activity at 5 µM (SGLT1) | remaining activity at 50 µM (SGLT1) | remaining activity at 5 µM (hSGLT2) | remaining activity at 50 µM (hSGLT2) | further results |
| --- | --- | --- | --- | --- | --- |
| CC1(C)Oc2ccc3ccc(=O)oc3c2[C@H](O)[C@@H]1O (relative stereo) [cis‐khellactone] | – | – | – | – | SGLT1 inhibition (SGLT1): no SGLT inhibition; SGLT2 inhibition (hSGLT2; mean inhibition with 50 μmol/L inhibitor): no SGLT inhibition |
| c1ccc(CN2CCCCC2)cc1 [1-Benzylpiperidine] | 109% | 102% | 94% | 93% | – |
| OC1(c2ccccc2)CCNC2CCCCC21 (stereo not drawn) [4-Phenyldecahydro-4-quinolinol] | 98% | 97% | 94% | 81% | – |
| c1ccc(C23CCN(CC2)CC3)cc1 [4-Phenylquinuclidine] | 96% | 72% | 81% | 60% | – |
| CC1(C)Oc2ccc3ccc(=O)oc3c2C[C@H]1O [(+)-Lomatin] | – | – | – | – | activity (SGLT1): 124%; activity (hSGLT2): 115%; SGLT2/SGLT1 ACTIVITY RATIO 5 uM Mean (hSGLT2): 0.9 |
| C1CCN2C[C@H]3C[C@H](CN4CCCC[C@@H]34)[C@H]2C1 [(+)-Sparteine] | – | – | – | – | SGLT2/SGLT1 ACTIVITY RATIO, first concentration (hSGLT2): 1.0; SGLT2/SGLT1 ACTIVITY RATIO, second concentration (hSGLT2): 1.0 |
| C/C=C(\C)C(=O)O[C@H]1[C@@H](OC(C)=O)c2c(ccc3ccc(=O)oc23)OC1(C)C [(+)‐praeruptorin A] | – | – | – | – | SGLT2/SGLT1‐50μmol/L (ratio of SGLT2 to SGLT1 activities with 50 μmol/L inhibitor) (SGLT1): 2 |
| C1CCN2C[C@@H]3C[C@@H](CN4CCCC[C@@H]34)[C@H]2C1 [(-)-Sparteine] | – | – | – | – | SGLT2/SGLT1 ACTIVITY RATIO, first concentration (hSGLT2): 1.0; SGLT2/SGLT1 ACTIVITY RATIO, second concentration (hSGLT2): 0.9 |
| CCCCCCCCCCCCN(C)C [Dimethyldodecylamine] | – | – | – | – | SGLT2/SGLT1 ACTIVITY RATIO, first concentration (hSGLT2): 0.9; SGLT2/SGLT1 ACTIVITY RATIO, second concentration (hSGLT2): 1.0 |
| CN(C)CCCN1c2ccccc2CCc2ccccc21 [Imipramine HCl] | – | – | – | – | SGLT2/SGLT1 ACTIVITY RATIO 5 uM Mean (hSGLT2): 0.743 |
| C/C=C(/C)C(=O)O[C@H]1C[C@@](C)(O)C(=O)[C@@H](OC(=O)/C(C)=C\C)[C@@]2(C)CC[C@@](O)(C(C)C)[C@H]12 [Laserpitin] | – | – | – | – | SGLT2/SGLT1 ACTIVITY RATIO, first concentration (hSGLT2): 1.0; SGLT2/SGLT1 ACTIVITY RATIO, second concentration (hSGLT2): 1.0 |
| CN(C)CCOC(C)(c1ccccc1)c1ccccc1 [Moxastine HCl] | – | – | – | – | SGLT2/SGLT1 ACTIVITY RATIO 5 uM Mean (hSGLT2): 0.9 |
| OC(CCN1CCCCC1)(c1ccccc1)C1CC2C=CC1C2 (stereo not drawn) [biperiden, reference compound] | – | – | – | – | SGLT1/2 inhibition stated in words (SGLT1): novel SGLT1/2 inhibitors |
| CNCCCN1c2ccccc2CCc2ccccc21 [desipramine, reference compound] | – | – | – | – | SGLT2/SGLT1‐50μmol/L (ratio of SGLT2 to SGLT1 activities with 50 μmol/L inhibitor) (SGLT1): 0.5; SGLT1 inhibition (SGLT1): no inhibition |
| CN(C)CCCN1c2ccccc2CCc2ccccc21 [imipramine, reference compound] | – | – | – | – | SGLT2/SGLT1‐50μmol/L (ratio of SGLT2 to SGLT1 activities with 50 μmol/L inhibitor) (SGLT1): 0.4; inhibition at 50 µM (SGLT1): 24% |
| Cc1cccc(C)c1NC(=O)C1CCCCN1C (stereo not drawn) [mepivacaine, reference compound] | – | – | – | – | inhibition at 50 µM (SGLT1): 11% |
| NC(=O)C1CCCN1C(=O)C(CCC(=O)O)NC(=O)C1CCC(=O)N1 (stereo not drawn) [pGlu-Glu-Pro-Amide] ([pGlu]-Glu-Pro-NH2; configuration not given here) | – | – | – | – | SGLT2/SGLT1 ACTIVITY RATIO, first concentration (hSGLT2): 1.0; SGLT2/SGLT1 ACTIVITY RATIO, second concentration (hSGLT2): 1.0 |
| CC=C(C)C(=O)O[C@H]1[C@@H](OC(C)=O)c2c(ccc3ccc(=O)oc23)OC1(C)C [praeruptorin C] | – | – | – | – | activity (SGLT1): 90% |
| OC(CCN1CCCC1)(c1ccccc1)C1CCCCC1 (stereo not drawn) [procyclidine, reference compound] | – | – | – | – | SGLT1/2 inhibition stated in words (SGLT1): novel SGLT1/2 inhibitors |
